# Results reported in patent US20170334899A1, “AMINO-SUBSTITUTED ISOTHIAZOLES” (Bayer Pharma Aktiengesellschaft, priority 2014, published 2017).
# Target: T1, human kinase Mps-1 (Homo sapiens, UniProt P33981)
# T1 construct: N-terminally GST-tagged human full length recombinant Mps-1 kinase; GST (N); purchased Invitrogen, Karslruhe, Germany PV4071
# T1 sequence (P33981 1-857): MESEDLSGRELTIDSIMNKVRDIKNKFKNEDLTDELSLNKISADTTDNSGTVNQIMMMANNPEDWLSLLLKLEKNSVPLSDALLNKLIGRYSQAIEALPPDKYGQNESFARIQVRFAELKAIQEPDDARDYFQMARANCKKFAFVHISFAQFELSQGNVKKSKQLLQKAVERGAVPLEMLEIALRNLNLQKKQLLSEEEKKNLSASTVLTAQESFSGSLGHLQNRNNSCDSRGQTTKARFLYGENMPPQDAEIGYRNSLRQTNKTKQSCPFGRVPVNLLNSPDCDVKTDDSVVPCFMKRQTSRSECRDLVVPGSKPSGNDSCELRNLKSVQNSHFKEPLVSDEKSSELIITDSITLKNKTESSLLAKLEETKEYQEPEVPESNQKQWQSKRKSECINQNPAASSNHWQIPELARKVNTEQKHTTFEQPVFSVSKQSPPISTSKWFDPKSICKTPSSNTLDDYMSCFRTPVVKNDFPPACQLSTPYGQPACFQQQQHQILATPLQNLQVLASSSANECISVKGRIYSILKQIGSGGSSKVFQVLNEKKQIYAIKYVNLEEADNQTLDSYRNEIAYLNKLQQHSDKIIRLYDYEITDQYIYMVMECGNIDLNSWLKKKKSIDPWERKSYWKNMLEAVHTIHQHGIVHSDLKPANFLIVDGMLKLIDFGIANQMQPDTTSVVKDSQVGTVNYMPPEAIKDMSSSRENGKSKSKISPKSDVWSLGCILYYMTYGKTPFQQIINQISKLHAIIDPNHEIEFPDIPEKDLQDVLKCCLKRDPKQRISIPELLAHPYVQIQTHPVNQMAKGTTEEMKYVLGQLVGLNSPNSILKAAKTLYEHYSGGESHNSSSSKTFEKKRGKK
# Assay: Mps-1 kinase assay (TR-FRET)
# Type: biochemical
# Conditions: Mps-1 TR-FRET kinase assay; avg; read-out: Mps1 avg (IC50 [mol/l])
# Outline: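 Inhibition normalised between uninhibited reaction (0%) and enzyme-free wells (100%), using the blank-corrected TR-FRET 665/620 nm ratio after EDTA stop. Reaction: ~0.5 nM GST-Mps-1 full length, 10 μM ATP, 1 μM biotin-peptide, 60 min at 22 °C, after 15 min compound pre-binding, pH 7.7.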
row,SMILES,IC50 [µM]
1,"Cc1nsc(Nc2cc(C#N)ccn2)c1C(=O)Nc1ccc(C(=O)OC(C)(C)C)cc1 [Example 182, tert-butyl 4-[({5-[(4-cyanopyridin-2-yl)amino]-3-methyl-1,2-thiazol-4-yl}carbonyl)amino]benzoate]",> 20
2,"Cc1nsc(Nc2cnc3ccccc3n2)c1C(=O)Nc1ccc(F)c(C(N)=O)c1 [Example 202, N-(3-carbamoyl-4-fluorophenyl)-3-methyl-5-(quinoxalin-2-ylamino)-1,2-thiazole-4-carboxamide]",5.8
3,"CCN(CC)CCNC(=O)c1cccc(NC(=O)c2c(C)nsc2Nc2cnccn2)c1 [Example 247, N-(3-{[2-(diethylamino)ethyl]carbamoyl}phenyl)-3-methyl-5-(pyrazin-2-ylamino)-1,2-thiazole-4-carboxamide]",> 20
4,"Cc1nsc(Nc2ccc(C#N)cn2)c1C(=O)Nc1cccc(NC(=O)OC(C)(C)C)c1 [Example 179, tert-butyl {3-[({5-[(5-cyanopyridin-2-yl)amino]-3-methyl-1,2-thiazol-4-yl}carbonyl)amino]phenyl}carbamate]",> 20
5,"Cc1nsc(Nc2cnc3ccccc3n2)c1C(=O)Nc1ccc(C(=O)OC(C)(C)C)cc1 [Example 181, tert-butyl 4-({[3-methyl-5-(quinoxalin-2-ylamino)-1,2-thiazol-4-yl]carbonyl}amino)benzoate]",> 20
6,"Cc1nsc(Nc2cnc3ccccc3n2)c1C(=O)Nc1ccc(NCCNC(=O)OC(C)(C)C)nc1 [Example 244, tert-butyl (2-{[5-({[3-methyl-5-(quinoxalin-2-ylamino)-1,2-thiazol-4-yl]carbonyl}amino)pyridin-2-yl]amino}ethyl)carbamate]",> 20
7,"Cc1nsc(Nc2cnc(C(F)(F)F)cn2)c1C(=O)Nc1ccc(OC2CCN(C(=O)OC(C)(C)C)CC2)c(F)c1 [Example 217, tert-butyl 4-(2-fluoro-4-{[(3-methyl-5-{[5-(trifluoromethyl)pyrazin-2-yl]amino}-1,2-thiazol-4-yl)carbonyl]amino}phenoxy)piperidine-1-carboxylate]",> 20
8,"CC(=O)N1CCC(Oc2ccc(NC(=O)c3c(C)nsc3Nc3cncc(C(F)(F)F)n3)cn2)CC1 [Example 17, N-{6-[(1-Acetylpiperidin-4-yl)oxy]pyridin-3-yl}-3-methyl-5-{[6-(trifluoromethyl)-pyrazin-2-yl]amino}-1,2-thiazole-4-carboxamide]",18
9,"CCN(CC)CCNC(=O)c1cccc(NC(=O)c2c(C)nsc2Nc2cc(C#N)ccn2)c1 [Example 174, 5-[(4-cyanopyridin-2-yl)amino]-N-(3-{[2-(diethylamino)ethyl]carbamoyl}phenyl)-3-methyl-1,2-thiazole-4-carboxamide]",> 20
10,"Cc1nsc(Nc2cnc(C(F)(F)F)cn2)c1C(=O)Nc1ccc(OCC2CCCN(C(=O)OC(C)(C)C)C2)nc1 (stereo not shown) [Example 228, tert-butyl 3-{[(5-{[(3-methyl-5-{[5-(trifluoromethyl)pyrazin-2-yl]amino}-1,2-thiazol-4-yl)carbonyl]amino}pyridin-2-yl)oxy]methyl}piperidine-1-carboxylate]",> 20
11,"Cc1nsc(Nc2cnc3ccccc3n2)c1C(=O)Nc1ccc(OC2CCN(CC(F)F)CC2)nc1 [Example 20, N-(6-{[1-(2,2-difluoroethyl)piperidin-4-yl]oxy}pyridin-3-yl)-3-methyl-5-(quinoxalin-2-ylamino)-1,2-thiazole-4-carboxamide]",≥ 20
12,"Cc1nsc(Nc2cnc3ccccc3n2)c1C(=O)Nc1ccc(NC(=O)C(C)(C)C)cc1 [Example 185, N-{4-[(2,2-dimethylpropanoyl)amino]phenyl}-3-methyl-5-(quinoxalin-2-ylamino)-1,2-thiazole-4-carboxamide]",> 20
13,"Cc1nsc(Nc2cncc(C(F)(F)F)n2)c1C(=O)Nc1ccc(OCCCN)nc1 [Example 209, N-[6-(3-aminopropoxy)pyridin-3-yl]-3-methyl-5-{[6-(trifluoromethyl)pyrazin-2-yl]amino}-1,2-thiazole-4-carboxamide]",> 20
